Data as given in PMC9774391 (ACS Omega, 2022).

How the values were obtained:
AChE = AChE (Homo sapiens, UniProt P22303); assay: biochemical
Method: (§1) According to the modified Ellman approach outlined in our team’s earlier work, the AChE and BChE inhibitory activities of the obtained compounds were evaluated.[18]−[21]

BChE = BChE (Homo sapiens, UniProt P06276); assay: biochemical
Method: as §1

MAO-A [1] = target: T1, MAO-A (Homo sapiens, UniProt P21397); assay: In vitro MAO-A inhibition assay (fluorometric); type: biochemical
T1 sequence (P21397 1-527): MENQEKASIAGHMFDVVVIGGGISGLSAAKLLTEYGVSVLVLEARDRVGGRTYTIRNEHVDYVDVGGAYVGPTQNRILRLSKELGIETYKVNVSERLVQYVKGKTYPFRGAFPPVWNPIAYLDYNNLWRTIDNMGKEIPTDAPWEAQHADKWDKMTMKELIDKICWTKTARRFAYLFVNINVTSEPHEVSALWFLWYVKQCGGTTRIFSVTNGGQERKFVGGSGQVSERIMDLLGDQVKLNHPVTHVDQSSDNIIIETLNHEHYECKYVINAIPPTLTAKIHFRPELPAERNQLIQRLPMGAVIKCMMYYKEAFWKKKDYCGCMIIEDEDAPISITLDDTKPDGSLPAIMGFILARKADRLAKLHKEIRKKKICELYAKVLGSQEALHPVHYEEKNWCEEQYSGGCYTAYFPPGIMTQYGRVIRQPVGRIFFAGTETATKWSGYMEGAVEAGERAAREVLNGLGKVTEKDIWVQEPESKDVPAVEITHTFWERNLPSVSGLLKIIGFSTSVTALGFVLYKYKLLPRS

MAO-B [2] = target: T2, MAO-B (Homo sapiens, UniProt P27338); assay: In vitro MAO-B inhibition assay (fluorometric); type: biochemical; conditions: for inhibition at 10 µM: 10^–5 M; for inhibition at 1 µM: 10^–6 M; for inhibition at 0.1 µM: 10^–7 M; for inhibition at 0.01 µM: 10^–8 M; for inhibition at 0.001 µM: 10^–9 M
T2 sequence (P27338 1-520): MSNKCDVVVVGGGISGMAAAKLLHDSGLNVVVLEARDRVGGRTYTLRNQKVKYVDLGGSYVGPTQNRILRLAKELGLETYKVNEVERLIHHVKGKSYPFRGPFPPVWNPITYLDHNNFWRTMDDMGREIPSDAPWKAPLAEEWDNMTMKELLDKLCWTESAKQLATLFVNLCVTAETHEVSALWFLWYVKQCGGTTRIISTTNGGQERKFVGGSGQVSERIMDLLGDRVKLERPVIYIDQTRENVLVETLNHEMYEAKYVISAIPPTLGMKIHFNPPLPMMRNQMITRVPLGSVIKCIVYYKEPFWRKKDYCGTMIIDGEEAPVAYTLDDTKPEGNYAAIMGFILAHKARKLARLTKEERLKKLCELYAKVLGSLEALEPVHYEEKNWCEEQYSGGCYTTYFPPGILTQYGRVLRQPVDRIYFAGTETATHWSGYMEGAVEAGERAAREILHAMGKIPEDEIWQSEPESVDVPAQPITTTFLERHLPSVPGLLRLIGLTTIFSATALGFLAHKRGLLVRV

MAO-B [3] = target: T2, MAO-B; assay: Enzyme kinetics on MAO-B (Lineweaver–Burk); type: biochemical
Method: (§2) The experimental procedures used in the kinetic investigations were identical to those used in the inhibition experiments. […]. Acetylthiocholine iodide (ATC) and butyrylthiocholine iodide (BTC) solutions were utilized as the substrates for the ChE enzymes, with serial dilutions at six different concentrations (600, 300, 150, 75, 37.5, and 18.75 μM). The tyramine substrate solution (concentrations ranging from 20 to 0.625 μM) was produced for the MAO enzymes at six different concentrations. Separate measurements were conducted both with and without an inhibitor. Using the Microsoft Office Excel 2013 program, the resulting absorbance values were compared to various substrate concentrations, and Lineweaver–Burk plots were created.[19]−[22]
(§3) The absorbance data from the experiments and the substrate concentrations were used to generate Lineweaver–Burk plots. The graphic’s x-axis stands for 1/[S] […] […]. The intersection of these four lines on the diagram was used to define the type of substrate and inhibitor reaction against the enzyme.
(§4) Reversible and irreversible inhibition of enzymes are the two categories that inhibition is commonly subdivided into. In irreversible inhibition, the inhibitor either creates a recalcitrant complex structure or establishes a covalent bond with the enzyme. […]

[4] = DPPH free-radical scavenging activity assay; conditions: serial dilution 10^–3–10^–9 M; read-out: IC50 on DPPH antioxidant activity
Method: This approach is based on evaluating the free-radical scavenging abilities of the stable 1,1-diphenyl-2-picrylhydrazyl (DPPH) radical. To create the DPHH solution, 9.86 mg of DPPH was weighed and diluted to 25 mL with methanol. The test wells were then filled with 100 μL of the DPPH solution and 100 μL of the test solutions. Only 200 μL of methanol was used for the blank reading, while the control reading required the usage of 100 μL each of methanol and the DPPH solution. Following incubation, a spectrophotometric measurement at 517 nm was carried out.[26],[27]

Beta Amyloid 1–42 (Aβ42) = target: T3, Beta Amyloid 1–42 (Aβ42) (Homo sapiens, UniProt P05067); assay: Beta Amyloid 1–42 (Aβ42) inhibitor screening assay; type: biochemical; conditions: for inhibition at 100 µM: 10^–4 M
T3 construct: The Beta Amyloid 1–42 (Aβ42) Ligand Screening Assay kit; purchased BioVision, Milpitas, CA
T3 sequence (P05067 672-713 limits assumed): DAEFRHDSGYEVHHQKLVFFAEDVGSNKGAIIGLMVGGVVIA
Description: The Beta Amyloid 1–42 (Aβ42) Ligand Screening Assay kit (BioVision, Milpitas, CA) technique based on the fluorometric approach served as the basis for the experimental process.[21],[28],[29]

Cytotoxicity test (MTT) = type: cell-based; conditions: NIH/3T3 mouse embryonic fibroblast cells (ATCC CRL-1658), NIH/3T3 mouse fibroblast healthy cell line
Method: (§5) The NIH/3T3 cells were incubated according to the manufacturer’s recommendations. In 96-well plates, NIH/3T3 cells were seeded at a density of 1 × 10^4 cells per well. The MTT test was conducted in line with the previously mentioned standards.[19],[22],[23],[28],[30]

MAO-A [5] = target: T1, MAO-A; assay: Enzyme kinetics on MAO-A (Lineweaver–Burk); type: biochemical
Method: as §2, §3, §4

[6] = test system: NIH/3T3 mouse embryonic fibroblast cell line; assay: Cytotoxicity test (MTT); type: cell-based; conditions: NIH/3T3 mouse fibroblast healthy cell line
Method: as §5

[7] = read-out: % β-amyloid plaque inhibition

AChE, sequence (P22303 32-614): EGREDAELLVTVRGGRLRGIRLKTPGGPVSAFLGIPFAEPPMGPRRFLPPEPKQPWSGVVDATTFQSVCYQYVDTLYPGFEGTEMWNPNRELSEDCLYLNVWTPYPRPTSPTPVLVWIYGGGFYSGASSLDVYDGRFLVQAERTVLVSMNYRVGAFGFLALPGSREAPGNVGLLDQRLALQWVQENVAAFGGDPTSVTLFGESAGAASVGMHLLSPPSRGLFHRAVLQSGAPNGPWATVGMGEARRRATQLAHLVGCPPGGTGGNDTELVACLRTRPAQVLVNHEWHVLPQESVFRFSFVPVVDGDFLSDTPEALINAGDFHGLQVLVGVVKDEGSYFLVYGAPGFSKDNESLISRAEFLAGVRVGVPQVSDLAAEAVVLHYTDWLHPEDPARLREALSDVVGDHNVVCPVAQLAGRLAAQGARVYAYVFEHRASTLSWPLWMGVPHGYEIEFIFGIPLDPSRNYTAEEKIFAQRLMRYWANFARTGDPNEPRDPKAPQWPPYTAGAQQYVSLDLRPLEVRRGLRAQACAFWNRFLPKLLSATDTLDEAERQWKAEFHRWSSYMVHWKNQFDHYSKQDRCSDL
BChE, sequence (P06276 29-602): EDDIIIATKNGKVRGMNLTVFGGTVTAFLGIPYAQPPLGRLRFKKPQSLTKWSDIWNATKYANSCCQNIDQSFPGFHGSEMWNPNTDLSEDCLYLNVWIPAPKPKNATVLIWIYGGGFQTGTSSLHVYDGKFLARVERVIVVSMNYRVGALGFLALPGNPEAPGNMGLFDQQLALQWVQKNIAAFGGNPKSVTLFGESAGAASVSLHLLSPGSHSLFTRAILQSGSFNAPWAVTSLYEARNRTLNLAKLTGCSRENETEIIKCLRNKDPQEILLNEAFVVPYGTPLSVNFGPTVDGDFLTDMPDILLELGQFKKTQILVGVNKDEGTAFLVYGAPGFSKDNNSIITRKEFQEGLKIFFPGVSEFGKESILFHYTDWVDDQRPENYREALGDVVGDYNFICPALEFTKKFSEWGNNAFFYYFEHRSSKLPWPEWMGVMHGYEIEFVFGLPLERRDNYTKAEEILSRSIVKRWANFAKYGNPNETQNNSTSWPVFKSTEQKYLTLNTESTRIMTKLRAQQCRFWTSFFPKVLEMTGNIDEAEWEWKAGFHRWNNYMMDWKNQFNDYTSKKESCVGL

Structure (SMILES) | IC50 (AChE) | inhibition at 1000 µM (AChE; 10^–3 M) | inhibition at 100 µM (AChE; 10^–4 M) | inhibition at 10 µM (AChE; 10^–5 M) | inhibition at 1 µM (AChE; 10^–6 M) | inhibition at 0.1 µM (AChE; 10^–7 M) | inhibition at 0.01 µM (AChE; 10^–8 M) | inhibition at 0.001 µM (AChE; 10^–9 M) | inhibition at 1000 µM (BChE; 10^–3 M) | inhibition at 100 µM (BChE; 10^–4 M) | inhibition at 1000 µM (MAO-A [1]; 10^–3 M) | IC50 (MAO-B [2]) | inhibition at 1000 µM (MAO-B [2]; 10^–3 M) | inhibition at 100 µM (MAO-B [2]; 10^–4 M) | inhibition at 10 µM (MAO-B [2]) | inhibition at 1 µM (MAO-B [2]) | inhibition at 0.1 µM (MAO-B [2]) | inhibition at 0.01 µM (MAO-B [2]) | inhibition at 0.001 µM (MAO-B [2]) | IC50 [4] | further results
COc1ccc2c(c1)C/C(=C\c1ccc(NC(=O)CN(C)CCCN(C)C)cc1)C2=O [D37] | 48.2 ± 1.7 nM | 92.5 ± 1.57% | 87.6 ± 1.68% | 83.5 ± 1.23% | 75.1 ± 1.08% | 61.5 ± 0.965% | 39.5 ± 0.489% | 19.7 ± 0.508% | 94.2 ± 1.39% | 89.7 ± 1.25% | 96.51 ± 0.736% | 31.2 ± 0.8 nM | 98.4 ± 1.63% | 91.6 ± 1.24% | 85.5 ± 1.12% | 78.3 ± 1.07% | 72.2 ± 1.1% | 40.1 ± 0.561% | 18.2 ± 0.418% | 179 ± 7 nM | IC50 (BChE): 83.9 ± 3.4 nM; inhibition at 10 µM (BChE; 10^–5 M): 82.7 ± 1.01%; inhibition at 1 µM (BChE; 10^–6 M): 71.4 ± 1.35%; inhibition at 0.1 µM (BChE; 10^–7 M): 59.3 ± 0.754%; inhibition at 0.01 µM (BChE; 10^–8 M): 32.5 ± 0.355%; inhibition at 0.001 µM (BChE; 10^–9 M): 18.5 ± 0.471%; inhibition at 100 µM (MAO-A [1]; 10^–4 M): 37.8 ± 0.96%; type of inhibition of MAO-B (MAO-B [3]; Lineweaver–Burk plots): noncompetitive inhibition; Ki (MAO-B [3]; secondary plot of Lineweaver–Burk data, read-out: steady-state inhibition constant (Ki), MAO-B): 29.7 nM; inhibition at 100 µM (Beta Amyloid 1–42 (Aβ42); [7]): > 50%; IC50 (Cytotoxicity test (MTT)): 2290 ± 136 nM
CCCN(C)CC(=O)Nc1ccc(/C=C2\Cc3cc(OC)ccc3C2=O)cc1 [D28] | 24.8 ± 1 nM | 98.6 ± 1.21% | 95.3 ± 1.31% | 92.8 ± 1.03% | 87.1 ± 1.06% | 72 ± 0.958% | 36 ± 0.623% | 19.4 ± 0.455% | 61.3 ± 0.997% | 36.6 ± 0.667% | 89.6 ± 1.29% | 40.9 ± 1.9 nM | 92.6 ± 1.33% | 89.3 ± 1.24% | 80.5 ± 1.01% | 75.2 ± 1.08% | 67 ± 0.958% | 41.5 ± 0.547% | 18.8 ± 0.421% | 210 ± 10 nM | IC50 (MAO-A [1]): 111 ± 4.7 nM; inhibition at 10 µM (MAO-A [1]; 10^–5 M): 72.7 ± 1.11%; inhibition at 1 µM (MAO-A [1]; 10^–6 M): 63.4 ± 1.08%; inhibition at 0.1 µM (MAO-A [1]; 10^–7 M): 59 ± 0.895%; inhibition at 0.01 µM (MAO-A [1]; 10^–8 M): 39.2 ± 0.714%; inhibition at 0.001 µM (MAO-A [1]; 10^–9 M): 18.7 ± 0.521%; fold stronger MAO-A inhibition compared to moclobemide (MAO-A [1]; ratio of IC50 values): 50 ×; type of inhibition of MAO-A (MAO-A [5]; Lineweaver–Burk plots): noncompetitive inhibition; Ki (MAO-A [5]; secondary plot of Lineweaver–Burk data, read-out: steady-state inhibition constant (Ki), MAO-A): 107 nM; inhibition at 1000 µM (Beta Amyloid 1–42 (Aβ42); 10^–3 M, read-out: % β-amyloid plaque inhibition): 82.7 ± 1.68%; inhibition at 100 µM (Beta Amyloid 1–42 (Aβ42); [7]): 75.6 ± 1.04%; IC50 (Beta Amyloid 1–42 (Aβ42); read-out: IC50 on β-amyloid plaque aggregation): 147 ± 5.3 nM; IC50 (Cytotoxicity test (MTT)): 6520 ± 175 nM
COc1cc2c(cc1OC)C(=O)C(=Cc1ccc(NC(=O)CN3CCN(CCN(C)C)CC3)cc1)C2 [D24] | 46.9 ± 1.9 nM | – | – | – | – | – | – | – | – | – | – | – | – | – | – | – | – | – | – | – | human AChE inhibition (%) (AChE; 10^–3 M): 93.224 ± 1.719%; human AChE inhibition (%) (AChE; 10^–4 M): 90.486 ± 1.298%; human AChE inhibition (%) (AChE; 10^–5 M): 82.415 ± 1.102%; human AChE inhibition (%) (AChE; 10^–6 M): 72.846 ± 1.267%; human AChE inhibition (%) (AChE; 10^–7 M): 63.963 ± 1.088%; human AChE inhibition (%) (AChE; 10^–8 M): 41.281 ± 0.623%; human AChE inhibition (%) (AChE; 10^–9 M): 18.773 ± 0.411%; human BChE inhibition (%) (BChE; 10^–3 M): 97.932 ± 2.016%; human BChE inhibition (%) (BChE; 10^–4 M): 49.401 ± 0.559%; human MAO-A inhibition (%) (MAO-A [1]; 10^–3 M): 64.076 ± 0.323%; human MAO-A inhibition (%) (MAO-A [1]; 10^–4 M): 25.257 ± 0.621%; human MAO-B inhibition (%) (MAO-B [2]; 10^–3 M): 75.628 ± 1.426%; human MAO-B inhibition (%) (MAO-B [2]; 10^–4 M): 46.324 ± 0.521%; IC50 [6]: 18640 ± 119 nM
